Consider 4 molecules from patent publication US10221420B2, “Aptamer construct” (priority 2014, dated 2019).

For data set [1], the target named is T1, CD133 expressed on HT29 cells (Homo sapiens, UniProt O43490).
T1 construct: host or cells: HT-29 human colorectal cancer cells
T1 sequence (O43490 20-865): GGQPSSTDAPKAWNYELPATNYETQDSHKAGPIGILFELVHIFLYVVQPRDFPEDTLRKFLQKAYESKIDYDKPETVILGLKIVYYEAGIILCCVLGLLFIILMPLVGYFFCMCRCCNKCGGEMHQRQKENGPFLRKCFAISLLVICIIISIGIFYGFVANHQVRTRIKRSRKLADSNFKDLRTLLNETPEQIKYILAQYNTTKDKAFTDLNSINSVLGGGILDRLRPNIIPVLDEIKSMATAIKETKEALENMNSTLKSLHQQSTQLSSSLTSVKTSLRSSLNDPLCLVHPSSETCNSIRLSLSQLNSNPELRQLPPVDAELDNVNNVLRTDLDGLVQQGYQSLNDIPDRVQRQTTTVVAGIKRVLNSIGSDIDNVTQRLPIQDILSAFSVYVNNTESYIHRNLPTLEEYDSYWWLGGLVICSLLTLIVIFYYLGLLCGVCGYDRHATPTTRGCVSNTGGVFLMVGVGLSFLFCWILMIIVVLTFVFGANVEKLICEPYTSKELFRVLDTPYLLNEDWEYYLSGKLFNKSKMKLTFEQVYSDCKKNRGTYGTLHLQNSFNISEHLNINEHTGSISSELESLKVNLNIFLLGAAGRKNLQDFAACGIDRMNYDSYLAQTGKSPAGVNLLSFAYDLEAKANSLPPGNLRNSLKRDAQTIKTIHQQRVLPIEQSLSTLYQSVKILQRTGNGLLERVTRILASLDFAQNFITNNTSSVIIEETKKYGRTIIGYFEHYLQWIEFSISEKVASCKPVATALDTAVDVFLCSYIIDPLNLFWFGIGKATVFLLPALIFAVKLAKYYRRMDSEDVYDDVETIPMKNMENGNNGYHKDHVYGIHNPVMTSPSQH
Put plainly: Equilibrium dissociation constant by flow cytometry on CD133 positive HT29 cells. It counts as binding. The following applies: Cy5 labelled. How it is done:
To minimize the non-specific binding, 1×10^5 HT29 or HEK293T cells were first incubated with blocking buffer (PBS with 10% FCS, 1% BSA and 1% tRNA) for 20 min. Cells were then washed twice with washing buffer (PBS containing 5% FBS and 2.5 mM MgCl2) and incubated on ice for 1 h with either CD133 aptamer, negative-control aptamer, CD133 aptamer-Dox conjugate or negative-control aptamer-Dox conjugate, all labelled with Cy5 in conjugation buffer (50 mM NaCl, and 2.5 mM MgCl2).
Prior to flow cytometric analysis, cells were again washed twice with washing buffer and then suspended in 150 μl washing buffer. Data was then collected using the flow cytometer (FACS CANTOII, Becton Dickerson) to measure the fluorescence intensity of the aptamer and the binding affinity was determined by normalising the fluorescence intensity with the fluorescent background from that of the negative-control aptamer and then derived using Graph Pad Prism software.
In general terms: A flow cytometer gives signals particle by particle.

For data set [2], the system named is HT29 cells. Put plainly: Internalisation of aptamer-Dox conjugate by confocal microscopy. Type of data set: cell-based, human. Here is the method:
Both HT29 and HEK293T were seeded at […] cells per well in 8-chamber slide for 24 h in preparation for confocal microscopy. Cells were incubated with blocking buffer (PBS with 10% FCS, 1 mg/mL BSA, 0.1 mg/mL tRNA) for 20 min, followed by washing twice with washing buffer (PBS containing 5% FBS, 2.5 mM MgCl2, and 5 mM NaCl) prior to incubation with 200 nM aptamer, negative-control aptamer, aptamer-Dox conjugate or […] Bisbenzimide Hoechst 33342 (3 mg/ml) (Sigma)) was added to the cells during the final 15 min of incubation. The aptamer solution was removed and the cells were washed three times for 5 min each in PBS prior to visualisation using a FluoView FV10i laser scanning confocal microscope (Olympus).

Data set [3] relates to HT29 cells. Put plainly: Tumoursphere formation assay (CSC frequency analysis in vitro). It counts as cell-based, human. To be noted: HT29, 96-well, lower seeding dose (10 or 5 cells/well), versus PBS control. Here is the method:
Cells were harvested at 80% confluence with trypsin digestion and resuspended as single cells in DMEM/F12 serum-free media following centrifugation (1000×g for 5 min). Cells were plated into 96-well ultralow attachment plates at a density of 5, 10, 50, 100, 500, and 1000 cells per well, or at 4000 cells /well in 6-well ultralow attachment plates for tumoursphere formation. Three experiment groups were used: tumoursphere medium control, free DOX treatment (1, 1.5 and 2 μM) and aptamer-Dox treatment (1, 1.5 and 2 μM equivalent to the same concentration of free DOX). After incubation for 24 h at 37° C. supernatant was removed and replaced with equal volume of fresh CSC medium. A tumoursphere was defined as a cell aggregate with a diameter of over 50 μm with well defined borders. Tumoursphere formation frequency and size were recorded 3 days after seeding. The frequency of CSCs was calculated using the ELDA website (http://bioinf.wehi.edu.au/software/elda/index.html. The tumoursphere formation frequency in 6-well incubation was calculated according to the formula F=Numbers of forming tumourspheres/Number of single cells plated (F is the tumoursphere formation frequency).

Data set [4] deals with T2, CD133 (prominin-1) (UniProt O43490 O43490:20-865).
T2 sequence: T1 sequence (O43490 20-865)
Kind of data set: flow; HT29 cells, 50 mM NaCl, 2.5 mM MgCl2, on ice 1 h; CD133-negative HEK293T gave KD >1000 nM. To be noted: tags: native CD133 on HT-29 colorectal cancer cells (ATCC); label: Cy5; hairpin with 10-bp DNA stem. Here is the method: (§1) Determination of the Equilibrium Dissociation Between the Aptamer-Dox Conjugate and its Target Cells To minimize the non-specific binding, 1×10^5 HT29 or HEK293T cells were first incubated with blocking buffer (PBS with 10% FCS, 1% BSA and 1% tRNA) for 20 min. Cells were then washed twice with washing buffer (PBS containing 5% FBS and 2.5 mM MgCl2) and incubated on ice for 1 h with either CD133 aptamer, negative-control aptamer, CD133 aptamer-Dox conjugate or negative-control aptamer-Dox conjugate, all labelled with Cy5 in conjugation buffer (50 mM NaCl, and 2.5 mM MgCl2).
(§2) To determine whether the conjugation of DOX impedes binding affinity and specificity of the aptamer to CD133 the fluorescently labelled Cy5 aptamer-Dox conjugate was incubated with HT29 colorectal cancer cells and the equilibrium dissociation constant (K_D) was determined via flow cytometric analysis (FIG. 6).
Two cell lines, HT29 and HEK293T, were chosen for the study. […] To ascertain that CD133 aptamer binds to CD133 via specific molecular interaction rather than a non-specific binding between a nucleic acid and CD133, the experiments were repeated with a negative control aptamer-Dox conjugate (FIG. 6B). This negative control aptamer has the identical nucleic acid sequence as the positive aptamer with the exception of a 2'-O-methyl modification instead of a 2'-fluoro chemical modification.

The target of data set [5] is T2, CD133 (prominin-1). Put plainly: flow; HT29 cells, 50 mM NaCl, 2.5 mM MgCl2, on ice 1 h. To be noted: tags: native CD133 on HT-29 colorectal cancer cells (ATCC); label: Cy5; hairpin with 10-bp DNA stem. Here is the method: as §1, §2

As a reminder, the Kd is the free concentration of one partner at which half of the binding sites on the other are occupied at equilibrium, for simple one-to-one binding. High values mean lower affinity, low ones higher affinity.

Take “5′-mCGmCGmCGmCmCGmCA(2′fC)G(2′-fU)A(2′fU)A(2′fC)(2′fU)A(2′fU)GmCGGmCGmCGmCG-(inv dT)-3′ (SEQ ID NO:5) (CGCGCGCCGCACGUAUACUAUGCGGCGCGCGT; 2'-F, 5-methyl-dC modifications; 3' inverted dT; a synthetic aptamer against CD133; modified_base (1)..(1) 5-methyl deoxycytidine; modified_base (3)..(3) 5-methyl deoxycytidine; modified_base (5)..(5) 5-methyl deoxycytidine; modified_base (7)..(8) 5-methyl deoxycytidine; modified_base (10)..(10) 5-methyl deoxycytidine; modified_base (12)..(12) 2′-fluoro 5-methyl deoxycytidine; modified_base (14)..(14) 2′-fluoro deoxyuridine; modified_base (16)..) [CD133 aptamer, hybrid RNA/DNA CD133 aptamer; RNA stem replaced with a 10-bp DNA stem containing 5′methyl-dC]”: in data set [1], the Kd was 84.8 nM. Also, the “internalisation (Cy5 aptamer)” value in data set [2] is “successfully internalised”.
`COc1cccc2c1C(=O)c1c(O)c3c(c(O)c1C2=O)C[C@@](O)(C(=O)CO)C[C@@H]3O[C@H]1C[C@H](N)[C@H](O)[C@H](C)O1` [free DOX, doxorubicin]: in data set [3], the “frequency of tumoursphere formation” value is recorded as “no significant decrease”.

B1: CD133 aptamer-Dox conjugate (mixed)
RNA: CGCGCGCCGCACGUAUACUAUGCGGCGCGCG
modifications: DNA stem with 5-methyl-dC; 2'-F C and U in RNA loop; 3' inverted dT; doxorubicin intercalated in stem
With B1, the Kd in data set [4] came out at 23.9 nM.

B2: CD133 RNA/DNA hybrid aptamer, unconjugated (mixed)
RNA: B1 RNA
modifications: DNA stem with 5-methyl-dC (all stem C except as printed); 2'-F C and U in RNA loop ACGUAUACUAU; 3' inverted dT
B2 gave a Kd in data set [5] of 84.8 nM.
